Read-outs that look alike come from different tables or passages of the source.
Legend:
Cercospora nicotianae = test: Action against Cercospora nicotianae on tobacco plants; type: in vivo
[1] = system: Colletotrichum lagenarium; test: Action against Colletotrichum lagenarium on Cucumis sativus L., foliar application; type: in vivo
[2] = system: Peronospora parasitica isolate Emwa; test: Action against Peronospora parasitica in Arabidopsis overexpressing NIM1 (lines 6E, 7C) and wild-type Ws; type: in vivo; settings: for inhibition at 500 µg/mL: fosetyl 0.5 g/l; for inhibition at 5000 µg/mL: fosetyl 5.0 g/l
Source text: The plant lines used in this example (6E and 7C) were generated from transformation of wild-type Arabidopsis thaliana plants (ecotype Ws) with the BamHI-HindIII NIM1 genomic fragment (SEQ ID NO:1—bases 1249-5655), as described above in Example 21. The fungicides metalaxyl, fosetyl, and copper hydroxide, formulated as 25%, 80%, and 70% active ingredient (ai), respectively, with a wettable powder carrier, were applied as fine mist to leaves of three week-old transgenic Ws plants constitutively expressing the NIM1 gene. The wettable powder alone was applied as a control. Three days later, plants were inoculated with a Peronospora parasitica isolate Emwa conidial suspension (1-2×10^5 spores/ml), as described in Delaney et al. (1995). Following inoculation, plants were covered to maintain high humidity and were placed in a Percival growth chamber at 17° C. with a 14-hr day/10-hr night cycle (Uknes et al., 1993). Tissue was harvested 8 days after inoculation.
Fungal infection progression was followed for 12 days by viewing under a dissecting microscope to score development of conidiophores (Delaney, et al. (1994); Dietrich, et al. (1994)). Lactophenoltrypan blue staining of individual leaves was carried out to observe fungal growth within leaf tissue. Fungal growth was quantified using a rRNA fungal probe obtained by PCR according to White et al. (1990; PCR Protocols: A guide to Methods and Application, 315-322) using primers NS1 and NS2 and P. parasitica EmWa DNA as templates. RNA was purified from frozen tissue by phenol/chloroform extraction following lithium chloride precipitation (Lagrimini et al, 1987: PNAS, 84: 7542-7546). Samples (7.5 μg) were separated by electrophoresis through formaldehyde agarose gels and blotted to nylon membranes (Hybond-N+, Amersham) as described by Ausbel et al. (1987). Hybridizations and washing were according to Church and Gilbert (1984, PNAS, 81: 1991-1995). Relative amounts of the transcript were determined using a Phosphor Imager (Molecular Dynamics, Sunnyvale, Calif.) following manufacturers instructions. Sample loading was normalized by probing stripped filter blots with the constitutively expressed b-tubulin Arabidopsis cDNA.

[3] = system: Peronospora parasitica Emwa; test: Action against Peronospora parasitica Emwa in Arabidopsis thaliana (Ws), rRNA fungal probe; type: in vivo
Pyricularia oryzae [4] = type: in vivo
[5] = system: Colletotrichum lagenarium; test: Action against Colletotrichum lagenarium on Cucumis sativus L., soil application; type: in vivo
Erysiphe graminis = test: Action against Erysiphe graminis on barley (residual-protective / systemic)
Procedure: Residual-protective action: Barley plants about 8 cm in height were sprayed to drip point with an aqueous spray mixture (max. 0.02 % active ingredient) and were dusted 3 to 4 days later with conidia of the fungus. The infected plants were stood in a greenhouse at 22°. Fungus infestation was generally evaluated 10 days after infection.
Systemic action: Barley plants about 8 cm in height were watered with an aqueous spray mixture (max. 0.002 % active ingredient, based on the volume of the soil). […] The plants were dusted with conidia of the fungus 3 to 4 days later. The infected plants were stood in a greenhouse at 22°. Fungus infestation was generally evaluated 10 days after infection.

Puccinia recondita = test: Action against Puccinia recondita in wheat
Procedure: 7-day-old wheat plants were sprayed to drip point with a spray mixture prepared from a formulated active ingredient, or combination of active ingredients. After 4 days, the treated plants were infected with a conidia suspension of the fungus, and the treated plants were subsequently incubated for 2 days at a relative atmospheric humidity of 90-100% and 20 C. 10 days post-infection, the fungus infestation was assessed.

Pyricularia oryzae [6] = type: in vivo; remark: listed apart in the source
[7] = Hyaloperonospora parasitica, in Arabidopsis thaliana, Table 37, wt Ws, read-out: Fungal Growth Inhibition % O (observed)
[8] = Hyaloperonospora parasitica, in Arabidopsis thaliana, wild-type Ws (Table 38), read-out: Fungal Growth Inhibition % O (observed)

CC1COC(Cn2cncn2)(c2ccc(Oc3ccc(Cl)cc3)cc2Cl)O1 (stereo not shown) [difenoconazole, 1-{2-[2-chloro-4-(4-chlorophenoxy)phenyl]-4-methyl-1,3-dioxolan-2-ylmethy 1)-1H-1,2,4-triazole]
% action O (observed) (Cercospora nicotianae; Table 12, comp. II alone 0.6 kg a.i. per ha): 3%
% action O (observed) (Cercospora nicotianae; Table 12, comp. II alone 2 kg a.i. per ha): 23%
% action O (observed) (Cercospora nicotianae; Table 12, comp. II alone 6 kg a.i. per ha): 32%

CO/N=C(/C(=O)OC)c1ccccc1COc1ccccc1C [cresoxime methyl, methyl-(E)-2-methoximino-2-[μ-(o-tolyloxy)-o-tolyl]acetate]
% action O (observed) ([1]; Table 6, comp. II alone 2 ppm): 0%
% action O (observed) ([1]; Table 6, comp. II alone 20 ppm): 41%

CC(Cc1ccc(C(C)(C)C)cc1)CN1C[C@@H](C)O[C@@H](C)C1 (relative stereo) [fenpropimorph, cis-4-[3-(4-tert-butylphenyl)-2-methylpropyl]-2,6-dimethylmorpholine]
% action O (observed) (Cercospora nicotianae; Table 11, comp. II alone 2 kg a.i. per ha): 13%
% action O (observed) (Cercospora nicotianae; Table 11, comp. II alone 6 kg a.i. per ha): 23%
% action O (observed) (Cercospora nicotianae; Table 11, comp. II alone 10 kg a.i. per ha): 42%

CCO[PH](=O)O [fosetyl, ethyl hydrogen phosphonate]
inhibition at 50 µg/mL ([2]; Hyaloperonospora parasitica, in Arabidopsis thaliana, Table 37, wt Ws, fosetyl 0.05 g/l, read-out: Fungal Growth Inhibition % O (observed)): 0%
inhibition at 500 µg/mL [2, 7]: 2%
inhibition at 5000 µg/mL [2, 7]: 7%
inhibition at 500 µg/mL [2, 8]: 2%
inhibition at 5000 µg/mL [2, 8]: 7%
inhibition at 40 µg/mL ([3]; Hyaloperonospora parasitica, in Arabidopsis thaliana, Table 31, Ws, fosetyl alone 0.04 g/l, read-out: Fungal Growth Inhibition % O (observed)): 0%
inhibition at 200 µg/mL ([3]; Hyaloperonospora parasitica, in Arabidopsis thaliana, Table 31, Ws, fosetyl alone 0.2 g/l, read-out: Fungal Growth Inhibition % O (observed)): 10%
inhibition at 1000 µg/mL ([3]; Hyaloperonospora parasitica, in Arabidopsis thaliana, Table 31, Ws, fosetyl alone 1.0 g/l, read-out: Fungal Growth Inhibition % O (observed)): 40%

[Cu+2].[OH-].[OH-] [Cu(OH)2, copper hydroxide]
Fungal Growth Inhibition % O (observed) ([2]; Cu(OH)2 0.02 g/l, wild-type Ws (Table 39)): 0%
Fungal Growth Inhibition % O (observed) ([2]; Cu(OH)2 0.02 g/l, wild-type Ws (Table 40)): 0%
Fungal Growth Inhibition % O (observed) ([2]; Cu(OH)2 0.2 g/l, wild-type Ws (Table 39)): 0%
Fungal Growth Inhibition % O (observed) ([2]; Cu(OH)2 0.2 g/l, wild-type Ws (Table 40)): 0%
Fungal Growth Inhibition % O (observed) ([2]; Cu(OH)2 2.0 g/l, wild-type Ws (Table 39)): 0%
Fungal Growth Inhibition % O (observed) ([2]; Cu(OH)2 2.0 g/l, wild-type Ws (Table 40)): 0%
Fungal Growth Inhibition % O (observed) ([3]; Table 32, Ws, Cu(OH)2 alone 0.01 g/l): 0%

Cc1cccc2sc3nncn3c12 [tricyclazole, 5-methyl-1,2,4-triazolo[3,4-b][1,3]benzothiazole]
% action O (observed) (Pyricularia oryzae [4]; Table 15, comp. II alone 0.1 ppm): 32%
% action O (observed) (Pyricularia oryzae [4]; Table 15, comp. II alone 0.25 ppm): 48%
% action O (observed) (Pyricularia oryzae [4]; Table 15, comp. II alone 0.5 ppm): 71%
% action O (observed) (Pyricularia oryzae [4]; Table 15, comp. II alone 1 ppm): 74%

CO/C=C(/C(=O)OC)c1ccccc1Oc1cc(Oc2ccccc2C#N)ncn1 [azoxystrobin, methyl-(E)-2-{2-[6-(2-cyanophenoxy)pyrimidin-4-yloxy]phenyl}-3-methoxyacrylate]
% action O (observed) ([1]; Table 4, comp. II alone 0.06 ppm): 5%
% action O (observed) ([1]; Table 4, comp. II alone 0.2 ppm): 9%
% action O (observed) ([1]; Table 4, comp. II alone 0.6 ppm): 12%
% action O (observed) ([1]; Table 4, comp. II alone 6 ppm): 17%
% action O (observed) ([1]; Table 7, comp. II alone 2 ppm): 18%
% action O (observed) ([1]; Table 7, comp. II alone 6 ppm): 75%
% action O (observed) ([5]; Table 5, comp. II alone 0.2 ppm): 0%
% action O (observed) ([5]; Table 5, comp. II alone 0.6 ppm): 9%
% action O (observed) ([5]; Table 5, comp. II alone 2 ppm): 28%
% action O (observed) ([5]; Table 5, comp. II alone 6 ppm): 66%
% action O (observed) ([5]; Table 8, comp. II alone 0.02 ppm): 1%
% action O (observed) ([5]; Table 8, comp. II alone 0.06 ppm): 5%
% action O (observed) ([5]; Table 8, comp. II alone 0.6 ppm): 27%
% action O (observed) ([5]; Table 8, comp. II alone 2 ppm): 61%
% action O (observed) ([5]; Table 8, comp. II alone 6 ppm): 93%

CC1(C)CCC(Cc2ccc(Cl)cc2)C1(O)Cn1cncn1 (stereo not shown) [metconazol, 5-(4-chlorobenzyl)-2,2-dimethyl-1-(1H-1,2,4-triazol-1-ylmethyl)-cyclopentanol]
% action O (observed) (Erysiphe graminis; Table 1, comp. II alone 0.6 ppm): 10%
% action O (observed) (Erysiphe graminis; Table 1, comp. II alone 2 ppm): 40%
% action O (observed) (Erysiphe graminis; Table 1, comp. II alone 6 ppm): 51%
% action O (observed) (Erysiphe graminis; Table 1, comp. II alone 20 ppm): 65%
% action O (observed) (Erysiphe graminis; Table 3, comp. II alone 6 ppm): 17%
% action O (observed) (Erysiphe graminis; Table 3, comp. II alone 20 ppm): 33%
% action O (observed) (Erysiphe graminis; Table 3, comp. II alone 60 ppm): 50%

CC(Cc1ccc(C(C)(C)C)cc1)CN1CCCCC1 (stereo not shown) [fenpropidine, 1-[3-(4-tert-butylphenyl)-2-methylpropyl]-piperidine]
% action O (observed) (Puccinia recondita; Table 20, comp. II alone 20 kg a.i. per ha): 40%
% action O (observed) (Puccinia recondita; Table 20, comp. II alone 60 kg a.i. per ha): 60%

CC(C1CC1)C(O)(Cn1cncn1)c1ccc(Cl)cc1 (stereo not shown) [cyproconazol, μ-(4-chlorophenyl)-μ-(1-cyclopropylethyl)-1H-1,2,4-triazole-1-ethanol]
% action O (observed) (Cercospora nicotianae; Table 10, comp. II alone 2 ppm): 0%
% action O (observed) (Cercospora nicotianae; Table 10, comp. II alone 6 ppm): 0%

CC(C)(C)C(O)(CCc1ccc(Cl)cc1)Cn1cncn1 (stereo not shown) [tebuconazol, μ-[2-(4-chlorophenyl)ethyl]-μ-(1,1-dimethylethyl)-1H-1,2,4-triazole-1-ethanol]
% action O (observed) (Cercospora nicotianae; Table 9, comp. II alone 2 ppm): 0%
% action O (observed) (Cercospora nicotianae; Table 9, comp. II alone 6 ppm): 0%

CCC1(C(=O)NC(C)c2ccc(Cl)cc2)C(C)C1(Cl)Cl [KTU 3616, (1R,3S/1S,3R)-2,2-dichloro-N-[(R)-1-(4-chlorophenyl)ethyl]-1-ethyl-3-methylcyclopropanecarboxamide]
% action O (observed) (Pyricularia oryzae [6]; Table 13, comp. II alone 0.02 ppm): 0%
% action O (observed) (Pyricularia oryzae [6]; Table 13, comp. II alone 0.06 ppm): 28%
% action O (observed) (Pyricularia oryzae [6]; Table 13, comp. II alone 0.2 ppm): 47%
% action O (observed) (Pyricularia oryzae [6]; Table 13, comp. II alone 0.6 ppm): 79%
% action O (observed) (Pyricularia oryzae [6]; Table 13, comp. II alone 2 ppm): 83%
% action O (observed) (Pyricularia oryzae [6]; Table 13, comp. II alone 6 ppm): 91%
